# Calls of active or inactive are those of the source.
# Key:
# Danio rerio = assay: In Vivo Angiogenesis Dose-Response Confirmation. [Related pubchem assays: 732 (Assay preceding this confirmatory assay.)]; type: functional, organism-based
# [1] = rise of 2N DNA cells, HeLa – IC50, dose response (AID 1117349); type: functional, cell-based
# [2] = CellTiter-Glo luminescence survival assay, SW480 colon tumor line, concentration-response curve, half-maximal inhibitory concentration (AID 1117338); type: functional
# [3] = RKO cell viability reduction, dose response, CellTiter-Glo luminescence (AID 1117322); type: functional
# [4] = cytotoxicity toward HCT116 cells – cell-based, CellTiter-Glo luminescence, IC50, dose response (AID 1117332); type: functional; conditions: HCT-116
# [5] = SNU-C1 cell viability reduction, dose response, CellTiter-Glo luminescence (AID 1117323); type: functional, cell-based
# [6] = cytotoxicity toward Colo320 cells – cell-based, CellTiter-Glo luminescence, IC50, dose response (AID 1117334); type: functional; conditions: COLO 320
# [7] = rise of 4N DNA cells, HeLa – IC50, dose response (AID 1117351); type: functional, cell-based
# [8] = cytotoxicity toward HT-29 cells – cell-based, CellTiter-Glo luminescence, IC50, dose response (AID 1117330); type: functional
# [9] = Reduced DLD-1 viability, concentration-response, CellTiter-Glo luminescence (AID 1117352); type: functional
# Aminopeptidase N = molecular target: T1, Aminopeptidase N (Plasmodium falciparum FcB1/Columbia, UniProt O96935); assay: malaria alanyl aminopeptidase activity blockers – biochemical, fluorogenic H-Leu-NHMec substrate, 1536-well (AID 1445); set-up: species or system Plasmodium falciparum 3D7, 3D7
# T1 sequence (O96935 whole entry): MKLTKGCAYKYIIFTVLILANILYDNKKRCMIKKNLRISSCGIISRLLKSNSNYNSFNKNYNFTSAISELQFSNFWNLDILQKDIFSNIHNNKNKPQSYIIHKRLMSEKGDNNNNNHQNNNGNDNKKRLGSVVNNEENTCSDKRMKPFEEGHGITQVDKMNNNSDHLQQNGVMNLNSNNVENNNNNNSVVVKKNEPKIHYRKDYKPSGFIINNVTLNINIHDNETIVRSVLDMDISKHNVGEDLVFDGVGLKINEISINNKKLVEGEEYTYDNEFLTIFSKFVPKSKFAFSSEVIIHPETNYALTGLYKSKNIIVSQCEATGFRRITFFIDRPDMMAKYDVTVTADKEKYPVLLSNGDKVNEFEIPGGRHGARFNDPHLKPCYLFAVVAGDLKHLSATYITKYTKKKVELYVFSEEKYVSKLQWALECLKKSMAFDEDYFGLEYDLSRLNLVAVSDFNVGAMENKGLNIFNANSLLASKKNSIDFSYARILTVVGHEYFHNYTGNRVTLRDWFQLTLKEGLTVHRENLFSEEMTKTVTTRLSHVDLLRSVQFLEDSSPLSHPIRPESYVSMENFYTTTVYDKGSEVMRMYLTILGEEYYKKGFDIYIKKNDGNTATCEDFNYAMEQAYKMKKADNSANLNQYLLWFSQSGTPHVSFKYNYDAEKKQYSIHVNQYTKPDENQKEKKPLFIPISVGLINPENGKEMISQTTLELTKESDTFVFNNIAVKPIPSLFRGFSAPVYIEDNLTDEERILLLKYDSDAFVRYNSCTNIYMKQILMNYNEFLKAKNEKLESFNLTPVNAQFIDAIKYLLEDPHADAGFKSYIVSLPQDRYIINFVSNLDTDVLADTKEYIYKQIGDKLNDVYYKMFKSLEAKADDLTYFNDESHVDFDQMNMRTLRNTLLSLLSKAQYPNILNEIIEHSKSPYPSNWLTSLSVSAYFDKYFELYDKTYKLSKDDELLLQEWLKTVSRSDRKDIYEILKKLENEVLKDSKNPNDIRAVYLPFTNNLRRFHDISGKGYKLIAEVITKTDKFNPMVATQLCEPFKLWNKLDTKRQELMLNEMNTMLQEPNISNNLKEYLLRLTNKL
# SUMO-activating enzyme [10] = molecular target: T2, SUMO-activating enzyme (Homo sapiens, UniProt Q9UBT2); assay: blockers of UBC9-mediated SUMO conjugation – biochemical, AlphaScreen, SUMOylation inhibitor project, confirmation (AID 2018); type: functional
# T2 sequence (Q9UBE0 whole entry): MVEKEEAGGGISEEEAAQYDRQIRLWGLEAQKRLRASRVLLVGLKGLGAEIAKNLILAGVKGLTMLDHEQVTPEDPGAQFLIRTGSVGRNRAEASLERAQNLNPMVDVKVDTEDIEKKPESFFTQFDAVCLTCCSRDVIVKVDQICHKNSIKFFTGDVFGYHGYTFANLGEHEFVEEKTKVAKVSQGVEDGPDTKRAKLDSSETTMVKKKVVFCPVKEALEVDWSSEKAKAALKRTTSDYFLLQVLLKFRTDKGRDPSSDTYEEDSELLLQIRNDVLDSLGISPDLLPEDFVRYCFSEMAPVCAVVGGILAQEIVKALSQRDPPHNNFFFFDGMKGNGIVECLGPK
# T2 sequence (Q9UBT2 whole entry): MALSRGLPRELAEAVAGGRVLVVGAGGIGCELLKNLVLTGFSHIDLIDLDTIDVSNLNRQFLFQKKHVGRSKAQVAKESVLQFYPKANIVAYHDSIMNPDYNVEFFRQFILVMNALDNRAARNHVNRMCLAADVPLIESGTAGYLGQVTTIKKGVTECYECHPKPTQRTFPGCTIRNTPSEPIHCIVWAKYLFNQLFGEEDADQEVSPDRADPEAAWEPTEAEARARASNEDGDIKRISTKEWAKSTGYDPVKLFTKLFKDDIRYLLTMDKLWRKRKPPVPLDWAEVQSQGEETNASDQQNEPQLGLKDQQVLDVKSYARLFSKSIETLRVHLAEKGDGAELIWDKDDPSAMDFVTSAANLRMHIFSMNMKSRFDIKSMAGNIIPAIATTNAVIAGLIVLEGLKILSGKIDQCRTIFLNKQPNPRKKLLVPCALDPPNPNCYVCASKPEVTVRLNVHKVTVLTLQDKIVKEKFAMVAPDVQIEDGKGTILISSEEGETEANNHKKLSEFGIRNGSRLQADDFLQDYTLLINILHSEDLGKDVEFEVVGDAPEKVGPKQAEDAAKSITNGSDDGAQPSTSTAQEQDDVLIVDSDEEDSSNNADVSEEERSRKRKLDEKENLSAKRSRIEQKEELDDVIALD
# SUMO-activating enzyme [11] = molecular target: T2, SUMO-activating enzyme; assay: blockers of SAE1/SAE2–UBC9 SUMO transfer – biochemical, HTRF, uHTS, primary screen (AID 2006); type: protein-complex assay
# [12] = molecular target: Heat shock protein HSP 90-alpha (Homo sapiens, UniProt P07900); assay: Luminescence-based dose response biochemical high throughput screening assay for inhibitors of the Heat Shock Protein 90 (HSP90). [Related pubchem assays: 1831 (Summary AID.), 1846 (Confirmation screen.), 1789 (Primary screen.)]
# SUMO E1/E2 = SUMO E1/E2 (Homo sapiens, UniProt P63279+Q9UBE0+Q9UBT2); assay: SAR analysis of SUMOylation using HTRF in an in-Vitro dose response assay. [Related pubchem assays (depositor defined):AID2006, AID2011, AID2018, AID2069, AID2658]; type: functional
# Sequence of SUMO E1/E2 (Q9UBE0 whole entry): as the sequence (Q9UBE0 whole entry) above
# Sequence of SUMO E1/E2 (Q9UBT2 whole entry): as the sequence (Q9UBT2 whole entry) above
# Sequence of SUMO E1/E2 (P63279 whole entry): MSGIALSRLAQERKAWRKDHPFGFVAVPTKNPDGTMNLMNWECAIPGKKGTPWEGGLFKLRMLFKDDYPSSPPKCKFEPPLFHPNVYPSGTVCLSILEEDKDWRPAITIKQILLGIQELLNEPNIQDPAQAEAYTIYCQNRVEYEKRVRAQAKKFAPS
# [13] = molecular target: T3, Tyrosyl-DNA phosphodiesterase 2 (Homo sapiens, UniProt O95551); assay: potency against TDP2 phosphodiesterase activity – biochemical, epi absorbance, IC50, dose response (AID 743297)
# T3 sequence (O95551 whole entry): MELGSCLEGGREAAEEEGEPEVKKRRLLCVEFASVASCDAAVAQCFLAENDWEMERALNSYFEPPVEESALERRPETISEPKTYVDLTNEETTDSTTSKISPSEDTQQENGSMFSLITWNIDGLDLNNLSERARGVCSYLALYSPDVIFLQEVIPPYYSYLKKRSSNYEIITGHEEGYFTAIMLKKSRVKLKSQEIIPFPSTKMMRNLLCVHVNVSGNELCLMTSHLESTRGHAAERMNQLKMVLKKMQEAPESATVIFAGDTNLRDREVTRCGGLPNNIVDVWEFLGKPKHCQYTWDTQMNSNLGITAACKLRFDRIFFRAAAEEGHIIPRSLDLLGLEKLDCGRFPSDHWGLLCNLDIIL
# [14] = molecular target: E3 ubiquitin-protein ligase Mdm2 (Homo sapiens, UniProt Q00987); assay: MDM2-luc reporter signal enhancers, multi-concentration potency testing, MDM2 ubiquitin-protein ligase inhibitor program, whole-cell format, luminescence detection, 384-well microplate (AID 1394); type: functional;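 further: MDM2 E3 inhibitors raise luminescence so EC50 is for signal enhancement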
# Prothrombin = Prothrombin (Homo sapiens, UniProt P00734); assay: Thrombin 1536 HTS Dose Response Confirmation. [Related pubchem assays: 1046 (Thrombin 1536 HTS; hits were confirmed in this assay)]; type: functional
# [15] = molecular target: Mitogen-activated protein kinase 10 (Homo sapiens, UniProt P53779); assay: Dose response biochemical screening assay for inhibitors of c-Jun N-Terminal Kinase 3 (JNK3). [Related pubchem assays: 746 ]
# [16] = molecular target: Dual specificity protein phosphatase 6 (Rattus norvegicus, UniProt Q64346); assay: inhibition of rat DUSP6 enzyme activity – biochemical, in vitro, primary screen (AID 425)
# [17] = molecular target: Diphosphomevalonate decarboxylase (Streptococcus pneumoniae serotype 2 (strain D39 / NCTC 7466), UniProt Q9FD53); assay: diphosphomevalonate decarboxylase inhibitor confirmation – biochemical, cuvette format, coupled NADH fluorescence (AID 1028); type: functional
# Sequence of Diphosphomevalonate decarboxylase (Q9FD53 whole entry): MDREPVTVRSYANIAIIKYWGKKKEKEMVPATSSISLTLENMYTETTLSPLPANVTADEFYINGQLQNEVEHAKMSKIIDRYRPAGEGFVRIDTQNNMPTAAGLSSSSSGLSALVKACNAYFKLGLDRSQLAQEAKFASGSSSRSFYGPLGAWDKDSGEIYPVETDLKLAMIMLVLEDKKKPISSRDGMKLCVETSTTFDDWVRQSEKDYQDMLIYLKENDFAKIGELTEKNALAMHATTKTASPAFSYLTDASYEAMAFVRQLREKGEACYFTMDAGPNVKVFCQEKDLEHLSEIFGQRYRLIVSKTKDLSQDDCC
# [18] = molecular target: Luciferin 4-monooxygenase (Photinus pyralis, UniProt P08659); assay: inhibition of purified Photinus pyralis luciferase – biochemical, luminescence, dose response (AID 1891)
# [19] = Luminescence Cell-Based Dose Confirmation HTS to Identify Inhibitors of Platelet Dense Granule Release. [Related pubchem assays: 1663 (Primary HTS), 1678 (Summary of Project)]; type: functional
# [20] = Fluorescence Cell-Based Dose Response to Identify Inhibitors of Thrombin Receptor-Activating Peptide SFLLRN-Mediated P-Selectin Induction on Platelets. [Related pubchem assays: 1663 (Primary HTS), 1889 (retest at dose ), 1891 (counterscreen), 1678 (Project Summary)]; type: functional
# [21] = molecular target: Peroxisome proliferator-activated receptor gamma/Nuclear receptor corepressor 2 (Homo sapiens, UniProt P37231+Q9Y618); assay: Counterscreen for NR2E3 inverse agonists: TR-FRET-based biochemical high throughput dose response assay to identify inverse agonists of the interaction between peroxisome proliferator-activated receptor gamma (PPARg) and nuclear receptor co-repressor 2 (NCOR2).; type: functional
# Sequence of Peroxisome proliferator-activated receptor gamma/Nuclear receptor corepressor 2 (P37231 whole entry): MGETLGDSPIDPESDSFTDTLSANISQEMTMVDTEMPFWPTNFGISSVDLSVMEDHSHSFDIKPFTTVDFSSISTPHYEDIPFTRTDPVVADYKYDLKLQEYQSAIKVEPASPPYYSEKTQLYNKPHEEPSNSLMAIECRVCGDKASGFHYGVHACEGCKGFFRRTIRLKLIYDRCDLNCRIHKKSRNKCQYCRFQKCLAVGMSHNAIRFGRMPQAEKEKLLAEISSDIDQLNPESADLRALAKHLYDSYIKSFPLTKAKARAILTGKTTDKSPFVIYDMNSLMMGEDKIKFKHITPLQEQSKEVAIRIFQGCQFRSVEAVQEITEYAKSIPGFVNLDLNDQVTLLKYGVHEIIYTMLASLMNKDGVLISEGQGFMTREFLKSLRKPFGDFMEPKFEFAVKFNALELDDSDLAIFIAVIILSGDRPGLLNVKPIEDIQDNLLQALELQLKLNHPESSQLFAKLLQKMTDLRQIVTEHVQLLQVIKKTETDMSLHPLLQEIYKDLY
# Sequence of Peroxisome proliferator-activated receptor gamma/Nuclear receptor corepressor 2 (Q9Y618 whole entry): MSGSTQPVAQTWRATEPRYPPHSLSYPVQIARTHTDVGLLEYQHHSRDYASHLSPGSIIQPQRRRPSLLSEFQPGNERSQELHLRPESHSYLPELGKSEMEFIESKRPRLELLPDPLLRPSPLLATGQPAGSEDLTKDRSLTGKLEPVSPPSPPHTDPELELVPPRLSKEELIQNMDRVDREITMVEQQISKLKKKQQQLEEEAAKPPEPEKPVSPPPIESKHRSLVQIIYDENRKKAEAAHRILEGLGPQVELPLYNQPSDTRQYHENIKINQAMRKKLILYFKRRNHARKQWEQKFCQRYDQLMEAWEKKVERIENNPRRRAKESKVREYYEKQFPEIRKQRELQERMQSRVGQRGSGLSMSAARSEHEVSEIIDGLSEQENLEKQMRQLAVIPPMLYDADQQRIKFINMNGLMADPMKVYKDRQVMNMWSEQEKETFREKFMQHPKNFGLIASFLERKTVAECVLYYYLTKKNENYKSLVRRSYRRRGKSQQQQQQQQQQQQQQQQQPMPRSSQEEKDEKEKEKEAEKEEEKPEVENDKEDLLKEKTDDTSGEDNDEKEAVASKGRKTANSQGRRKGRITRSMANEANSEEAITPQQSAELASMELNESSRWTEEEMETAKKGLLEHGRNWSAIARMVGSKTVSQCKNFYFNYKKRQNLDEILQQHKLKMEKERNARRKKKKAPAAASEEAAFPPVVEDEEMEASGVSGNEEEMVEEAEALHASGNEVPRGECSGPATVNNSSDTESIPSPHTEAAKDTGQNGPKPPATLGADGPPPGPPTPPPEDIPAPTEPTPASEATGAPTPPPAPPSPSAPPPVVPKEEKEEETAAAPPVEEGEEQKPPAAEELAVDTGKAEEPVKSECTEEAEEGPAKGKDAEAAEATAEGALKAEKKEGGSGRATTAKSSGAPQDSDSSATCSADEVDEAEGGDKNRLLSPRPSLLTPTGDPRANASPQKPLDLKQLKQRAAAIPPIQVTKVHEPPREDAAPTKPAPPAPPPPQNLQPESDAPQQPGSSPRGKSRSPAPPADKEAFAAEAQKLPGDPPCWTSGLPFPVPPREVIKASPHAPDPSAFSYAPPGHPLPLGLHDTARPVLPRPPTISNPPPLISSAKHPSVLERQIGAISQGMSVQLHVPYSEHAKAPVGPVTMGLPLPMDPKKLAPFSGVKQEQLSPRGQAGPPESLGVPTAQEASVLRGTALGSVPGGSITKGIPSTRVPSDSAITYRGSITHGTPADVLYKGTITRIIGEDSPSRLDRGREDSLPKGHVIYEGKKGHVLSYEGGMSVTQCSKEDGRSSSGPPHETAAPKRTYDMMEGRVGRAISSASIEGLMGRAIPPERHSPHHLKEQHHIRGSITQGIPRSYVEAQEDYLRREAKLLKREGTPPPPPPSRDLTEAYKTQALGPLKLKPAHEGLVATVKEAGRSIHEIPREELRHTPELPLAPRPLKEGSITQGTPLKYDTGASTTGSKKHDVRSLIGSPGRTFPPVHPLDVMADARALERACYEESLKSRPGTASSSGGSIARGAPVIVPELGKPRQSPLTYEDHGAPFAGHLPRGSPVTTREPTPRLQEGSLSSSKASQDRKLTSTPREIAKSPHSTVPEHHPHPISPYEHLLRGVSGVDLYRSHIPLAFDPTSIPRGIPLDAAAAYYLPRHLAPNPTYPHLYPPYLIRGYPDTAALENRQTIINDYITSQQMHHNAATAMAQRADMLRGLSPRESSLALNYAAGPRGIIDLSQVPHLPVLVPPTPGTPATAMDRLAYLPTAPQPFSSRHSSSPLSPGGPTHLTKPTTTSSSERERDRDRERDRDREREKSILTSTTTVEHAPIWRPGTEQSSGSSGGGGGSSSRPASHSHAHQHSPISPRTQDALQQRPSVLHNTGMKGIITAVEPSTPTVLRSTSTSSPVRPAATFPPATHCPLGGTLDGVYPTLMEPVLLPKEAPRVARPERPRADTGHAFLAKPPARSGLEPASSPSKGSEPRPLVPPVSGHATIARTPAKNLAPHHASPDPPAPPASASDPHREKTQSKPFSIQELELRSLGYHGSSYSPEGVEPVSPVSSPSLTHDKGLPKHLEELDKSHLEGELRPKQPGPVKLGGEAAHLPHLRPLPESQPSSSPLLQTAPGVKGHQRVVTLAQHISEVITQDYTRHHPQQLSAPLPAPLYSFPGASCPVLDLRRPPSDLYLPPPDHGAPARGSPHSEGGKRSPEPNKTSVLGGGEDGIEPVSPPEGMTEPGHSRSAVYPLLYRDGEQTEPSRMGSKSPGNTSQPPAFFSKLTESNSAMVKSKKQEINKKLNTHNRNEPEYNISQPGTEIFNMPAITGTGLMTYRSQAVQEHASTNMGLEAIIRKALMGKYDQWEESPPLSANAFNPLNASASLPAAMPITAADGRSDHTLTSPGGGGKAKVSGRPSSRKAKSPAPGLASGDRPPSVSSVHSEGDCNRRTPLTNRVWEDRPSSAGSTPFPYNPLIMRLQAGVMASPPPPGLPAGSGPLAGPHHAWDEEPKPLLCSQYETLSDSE
# [22] = molecular target: Photoreceptor-specific nuclear receptor (Homo sapiens, UniProt Q9Y5X4); assay: ligands suppressing NR2E3 nuclear receptor activity – biochemical, TR-FRET, dose response (AID 463256); type: functional
# Sequence of Photoreceptor-specific nuclear receptor (Q9Y5X4 whole entry): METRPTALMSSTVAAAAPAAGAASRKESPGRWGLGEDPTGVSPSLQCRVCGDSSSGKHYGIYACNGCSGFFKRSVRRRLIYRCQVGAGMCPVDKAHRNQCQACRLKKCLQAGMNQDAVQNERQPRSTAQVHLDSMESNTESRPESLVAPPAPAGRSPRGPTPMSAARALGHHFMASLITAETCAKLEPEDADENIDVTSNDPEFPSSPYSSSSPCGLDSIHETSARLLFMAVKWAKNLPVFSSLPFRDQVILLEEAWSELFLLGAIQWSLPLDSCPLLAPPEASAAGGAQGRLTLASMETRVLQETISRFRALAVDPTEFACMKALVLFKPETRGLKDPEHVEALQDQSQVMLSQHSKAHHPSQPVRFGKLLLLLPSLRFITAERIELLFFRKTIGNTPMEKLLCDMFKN
smiles,measurement,setting,value
Fc1ccc(C(OCCN2CCN(CCCc3ccccc3)CC2)c2ccc(F)cc2)cc1,IC50,Danio rerio,5.73 µM (not active)
same,IC50,[1],> 10 µM (inactive)
same,IC50,[2],2.07 µM (active)
same,IC50,[3],0.113 µM (active)
same,IC50,[4],4.87 µM (active)
same,IC50,[5],1.82 µM (active)
same,IC50,[6],> 20 µM (inactive)
same,IC50,[7],> 10 µM (inactive)
same,IC50,[8],1.49 µM (active)
same,IC50,[9],0.903 µM (active)
C=CCn1c(NS(=O)(=O)c2ccccc2)c(S(=O)(=O)c2ccc(C)cc2)c2nc3ccccc3nc21,IC50,Aminopeptidase N,36.2 µM (active)
same,IC50,SUMO-activating enzyme [10],0.88 µM (active)
same,IC50,SUMO-activating enzyme [11],1.5 µM (active)
same,IC50,[12],1.61 µM (active)
same,IC50,SUMO E1/E2,4.29 µM (active)
same,IC50,[13],68.1 µM (inactive)
COc1ccc(-c2nc(C)c(C(C)=O)n2O)cc1,EC50,[14],12.3 µM (not active)
Cc1ccc2c(c1)CC1(CN2C)C(=O)OC2(CCCCC2)OC1=O,IC50,Prothrombin,4.14 µM (active)
same,IC50,[15],> 93.1 µM (not active)
CCN(CC)CCCN1C(=O)C(O)=C(C(=O)c2ccccc2)C1c1ccccn1 (stereo unspecified),IC50,[16],> 100 µM (not active)
Cc1ccc(-n2sc3ccccc3c2=O)cc1S(=O)(=O)N1CCCC1,IC50,[17],4.15 µM (active)
Cc1nc(O)c(C#N)c(C)c1CSc1ncccn1,EC50,[18],> 112 µM (not active)
same,EC50,[19],3.68 µM (active)
same,EC50,[20],< 1 µM (active)
CC(=O)Nc1cccc(Oc2nc(C(F)(F)F)nc3ccccc23)c1,IC50,[21],> 39.8 µM (not active)
same,IC50,[22],18.7 µM (not active)
